Test results taken from ChEMBL document CHEMBL1156829 (Proc Natl Acad Sci U S A, 2008).

Key:
Plasmodium falciparum [1] = experiment: NOVARTIS: Inhibition of Plasmodium falciparum W2 (drug-resistant) proliferation in erythrocyte-based infection assay; format: functional, organism-based
[2] = NOVARTIS: Cytotoxicity against human hepatocellular carcinoma cell line (Huh7); format: toxicity, cell-based, Huh-7; details: Huh7 cells (hepatocellular carcinoma cell line)
Plasmodium falciparum [3] = experiment: NOVARTIS: Inhibition of Plasmodium falciparum 3D7 (drug-susceptible) proliferation in erythrocyte-based infection assay; format: functional, organism-based; details: Plasmodium falciparum, 3D7
[4] = Plasmodium falciparum, W2, read-out: EC50

SMILES | EC50 (Plasmodium falciparum [1]; [4]) | CC50 [2] | EC50 (Plasmodium falciparum [3]) | EC50 (Plasmodium falciparum [1])
O=C1C2C(C(=O)N1c1ccc(Cl)c(C(F)(F)F)c1)C1(c3ccccc3)C(=O)C2(c2ccccc2)C(c2ccccc2)=C1c1ccccc1 (centres undefined) | 616 nM | > 100000 nM | 442 nM | 
Cc1cc(Nc2ccc(Cl)cc2)nc(NCc2ccccc2)n1 | 150 nM | 19600 nM | 91.9 nM | 
Cc1cc(C)cc(NC(=O)c2cc(-c3ccc(Cl)cc3)nc3ccccc23)c1 | > 716 nM | > 10000 nM | > 1250 nM | 
C=CCSc1nc(Sc2ccc(Cl)cc2)c2sc3ccccc3c2n1 | > 642 nM | > 10000 nM | > 1250 nM | 
O=C(CCl)Nc1ccc(N2CCCCCC2)cc1 | 1330 nM | 19700 nM | 1260 nM | 
Oc1cccc(Nc2nc(NCc3ccco3)c3ccccc3n2)c1 | 279 nM | 11500 nM | 275 nM | 
CC(=O)OC1C(NC(=O)c2cc([N+](=O)[O-])c(N(C)C)c([N+](=O)[O-])c2)OC(C(=O)N2CCOCC2)C(OC(C)=O)C1OC(C)=O (centres undefined) | > 1250 nM | > 10000 nM | > 1090 nM | 
CC(=O)Nc1ccc(S(=O)(=O)N2CCC(c3nc(-c4cccnc4)no3)CC2)cc1 | 736 nM | > 100000 nM | > 9640 nM | 
N#Cc1cc(C#N)c(N2CCN(c3cccc(Cl)n3)CC2)nc1N | 714 nM | > 10000 nM | 791 nM | 
Cc1ccnc(NC(c2ccc(Cl)cc2Cl)c2ccc3cccnc3c2O)c1 (centres undefined) | 120 nM | 60100 nM | 296 nM | 
O=C(Nc1ccc(-c2nc3ccccc3[nH]2)cc1)c1ccccc1Oc1ccccc1 | 2140 nM | > 100000 nM | 1580 nM | 
CCN1CCN(Cc2cc(=O)oc3cc(-c4ccccc4)c(O)cc23)CC1 | 385 nM | 12500 nM | 284 nM | 
COc1ccc([N+](=O)[O-])cc1NC(=O)C(C)Nc1ccc(N(C)C)cc1 (centres undefined) | 860 nM | 34200 nM | 343 nM | 
CC(=NOC(=O)c1ccco1)c1cnccn1 | > 1250 nM | > 10000 nM | 1250 nM | 
C=CC1CC23CC(C(OC(=O)CCC(=O)O)c4ccnc5ccc(OC)cc45)N2CCC13 (centres undefined) | 77.5 nM | 45700 nM | 14 nM | 
C[n+]1c2ccccc2nc2ccc(NC3CCCCC3N)cc21.[O-][Cl+3]([O-])([O-])[O-] (centres undefined) | 122 nM | 4210 nM | 256 nM | 
CC[n+]1c(/C=C(C)/C=C2\Sc3ccccc3N2CCO)sc2ccccc21 | 1640 nM | > 10000 nM | > 1250 nM | 
CCOC(=O)C1=C(C)NC2=C(C(=O)CC(c3ccc(OC)c(OC)c3)C2)C1c1ccccc1Cl (centres undefined) | 8.74 nM | > 100000 nM | 5.05 nM | 
CN(C)C(=O)O[n+]1ccc(N(C)C)cc1 | > 897 nM | > 10000 nM | > 990 nM | 
Cc1c(C#N)c2ccccc2n1CC(=O)Nc1ccc(Br)cc1 | 1030 nM | 11100 nM | 771 nM | 
Cc1cc(C)c2nc(NS(=O)(=O)c3cccc(C(=O)O)c3)sc2c1 | 1250 nM | > 10000 nM | 693 nM | 
CC(=O)Nc1nc(-c2ccc(F)cc2)cs1 | 3520 nM | > 100000 nM | > 12500 nM | 
CC(C(=O)NN=C1CCN(C)CC1)N(c1ccccc1)S(C)(=O)=O (centres undefined) | 1270 nM | > 10000 nM | > 1250 nM | 

SMILES | EC50 (Plasmodium falciparum [1]; [4]) | CC50 [2] | EC50 (Plasmodium falciparum [3]) | EC50 (Plasmodium falciparum [1])
CCc1ccc(C2C(C(=O)Nc3ccccc3)=C(C)Nc3c(C(=O)Nc4ccc(C)cc4)cnn32)cc1 (centres undefined) | 554 nM | > 100000 nM | 1500 nM | 
Cc1ccc(C(C(=O)NCc2ccccc2)N(C(=O)c2snc(C(N)=O)c2N)c2ccccc2)o1 (centres undefined) | > 755 nM | > 10000 nM | 1230 nM | 
Cc1cc(C)nc(SCc2cc(=O)c(OC(=O)c3cccc([N+](=O)[O-])c3C)co2)n1 | > 7470 nM | > 100000 nM | > 12500 nM | 
Cc1cc(C)n(-c2ccc(NC(=O)C3CCN(Cc4cnc(C)s4)CC3)cc2)n1 | 840 nM | > 100000 nM | 811 nM | 
O=c1[nH]c(SCC(O)c2ccc(Cl)c(Cl)c2)nc2sc3ccccc3c12 (centres undefined) | 124 nM | > 10000 nM | 663 nM | 
OCCN(CCO)CC(O)Cn1c2ccc(Br)cc2c2cc(Br)ccc21 (centres undefined) | 1550 nM | 27300 nM | 2330 nM | 
CCN(CC)CCCN(Cc1cc2cc3c(cc2[nH]c1=O)OCCO3)C(=S)Nc1cccc(Cl)c1 | 890 nM | 21200 nM | 1160 nM | 
CCC(c1nc2ccccc2c(=O)n1-c1ccc(F)c(Cl)c1)N(CCc1ccccc1)C(=O)COc1ccc(Cl)cc1 (centres undefined) | < 0.849 nM | > 6450 nM | 941 nM | 
CSc1nccc(-c2cc(F)cc3c2OC(CNC(=O)C2CC(=O)c4ccccc42)C3)n1 (centres undefined) | > 969 nM | > 10000 nM | 1800 nM | 
COc1ccc(NC(=O)C2c3ccccc3C(=O)N(C3CCCC3)C2c2cccs2)cc1Cl (centres undefined) | 107 nM | > 100000 nM | 128 nM | 
Cc1cc(N2CCN(C/C=C/c3ccccc3)CC2)n2c(nc3ccccc32)c1C#N | 395 nM | > 10000 nM | 415 nM | 
CN(C)c1ccc(N2C(N)=NC(N)=NC2(C)C)cc1 | > 1250 nM | > 10000 nM | 18.8 nM | 
COC(=O)C1=CNC=C(C(=O)OC)C1c1cc(OC)c(OC)c(OC)c1 | 4500 nM | > 100000 nM | 8990 nM | 
CCN1CCCC1CNC(=O)CN1N=C(c2ccccc2)Cn2c(cc3ccccc32)C1=O (centres undefined) | > 1130 nM | > 10000 nM | > 1250 nM | 
CS(=O)(=O)N1CCCCC1C(=O)NCc1ccc(OC2CCN(CC(c3ccccc3)c3ccccc3)CC2)cc1 (centres undefined) | 22.9 nM | > 10000 nM | 1020 nM | 
O=C(Nc1ccncc1)Nc1cccc(NC(=O)Nc2ccncc2)c1 | 2230 nM | > 10000 nM | > 1250 nM | 
Cc1ccc(Cn2c(C)c3cnn(CC(=O)O)c(=O)c3c2C)cc1 | 928 nM | > 100000 nM | > 9010 nM | 
CC(C)(C)C1=CC(=C2C=C(C(C)(C)C)SC(C(C)(C)C)=C2)C=C(C(C)(C)C)S1 | 506 nM | > 10000 nM | 805 nM | 
CC(C)CNC(=O)c1cnc(NCCCn2ccnc2)nc1NC1CCCC1 | > 298 nM | > 10000 nM | 678 nM | 
CC(=O)c1ccc(OCCSc2nc3c(N)ncnc3[nH]2)cc1 | > 9150 nM | > 100000 nM | > 11200 nM | 
CC(NC(=S)N(Cc1ccco1)Cc1cc2cc3c(cc2[nH]c1=O)OCO3)c1ccccc1 (centres undefined) | 405 nM | > 100000 nM | 1370 nM | 
COc1ccc2c(c1)sc1nc(C)c(C)c(C)[n+]12 | > 952 nM | > 10000 nM | 688 nM | 
CCOC(=O)C(Cc1ccc(O)cc1)NC1=CC(=O)C(=O)c2ccccc21 (centres undefined) | 333 nM | > 100000 nM | 305 nM | 

SMILES | EC50 (Plasmodium falciparum [1]; [4]) | CC50 [2] | EC50 (Plasmodium falciparum [3]) | EC50 (Plasmodium falciparum [1])
Oc1c(C(Nc2ccccn2)c2ccc(Br)cc2)ccc2cccnc12 (centres undefined) | 284 nM | > 100000 nM | 358 nM | 
CN(CCCNc1ccnc2cc(Cl)ccc12)C(=O)c1cc(C(F)(F)F)cc(C(F)(F)F)c1 | < 10.4 nM | > 10000 nM | 86.8 nM | 
COc1cccc(CN2CCN(C(=O)c3c(C)noc3C)[C@@H](C)C2)c1 | > 1250 nM | > 10000 nM | > 936 nM | 
COc1ccccc1NC(=O)N(Cc1ccccc1)C(C)c1nc2ccccc2c(=O)n1-c1cc(C)ccc1OC (centres undefined) | < 15.6 nM | > 10000 nM | 344 nM | 
O=C(O)C(Cc1ccc([N+](=O)[O-])cc1)NS(=O)(=O)c1ccc(OC(F)(F)F)cc1 (centres undefined) | 3.29 nM | > 10000 nM | 580 nM | 
CCc1cc(C(=O)OC)c(NC(=S)NC(C)c2ccncc2)s1 (centres undefined) | 5160 nM | > 86900 nM | 4550 nM | 
CCN(CC)CCCNc1nc2cc(OC)c(OC)cc2c2nc(-c3ccccc3)nn12 | 1170 nM | > 100000 nM | 3250 nM | 
N=C(N)NN=Cc1cc(Cl)ccc1O |  | > 1860 nM | 12.8 nM | No fit
CCOC(=O)C1=C(C)NC2=C(C(=O)C(C(=O)OC)C(C)C2)C1c1cc(Br)c(OC)c(OC)c1 (centres undefined) | 40.4 nM | > 100000 nM | 537 nM | 
COc1ccc(NC(=O)c2cc3cc(C4(O)CCN(CC(C)(C)C)CC4)ccc3o2)cc1OC | 480 nM | > 10000 nM | > 1250 nM | 
CCC(COC)NC(=O)c1cn(C2CCCCC2)cc(C(=O)NC(C)(C)C)c1=O (centres undefined) | 1980 nM | > 100000 nM | 2900 nM | 
CCOC(=O)CCCCC(=O)c1[nH]c(=O)[nH]c1Cn1ccnc1 | 165 nM | > 100000 nM | 152 nM | 
C=CCSC1=NC2(CC(c3ccccc3)c3cc(Cl)c(O)cc3O2)CC(C)(C)N1 (centres undefined) | 1520 nM | > 10000 nM | > 1190 nM | 
Cc1cc(C)[n+](C)n1CC(O)Cn1c2ccccc2c2ccccc21 (centres undefined) | 691 nM | > 100000 nM | 1220 nM | 
COc1ccccc1NC(=O)CCCC(=O)OC(C)C(=O)c1ccccc1 (centres undefined) | > 659 nM | > 10000 nM | > 1250 nM | 
CCN1CCN(c2cc(C)c3cc(NC(=O)c4cc(=O)c5ccccc5o4)ccc3n2)CC1 | 386 nM | > 10000 nM | 498 nM | 
CCOC(=O)CCC(=O)N(C)CCCNc1ccnc2cc(Cl)ccc12 | < 15.6 nM | > 10000 nM | 673 nM | 
Cc1ccc(S(=O)(=O)N=C(NS(=O)(=O)c2ccc(C)cc2)c2ccccc2)cc1 | > 11200 nM | > 100000 nM | > 11200 nM | 
O=C(NCCc1ccccc1)c1cnc(NCCCN2CCCC2)nc1NCC1CCCCC1 | > 42.5 nM | > 10000 nM | 603 nM | 
CCn1c(SCC(=O)NCCc2ccccc2)nc2sc3c(c2c1=O)CCN(C)C3 | 3100 nM | > 100000 nM | > 4820 nM | 
Clc1ccccc1C(c1ccccc1)(c1ccccc1)n1ccnc1 [CLOTRIMAZOLE] | 338 nM | 25800 nM | 280 nM | 
Cc1ccn2c(NC(C)(C)CC(C)(C)C)c(-c3ccccc3OC(=O)CCC3CCCC3)nc2c1 | < 10.2 nM | > 10000 nM | 1100 nM | 
